From PMC11320734 (ACS Pharmacology & Translational Science, 2024)
Where two headings read alike, the source gives them in different places.

Columns and labels:
Microsomal clearance = assay type: in vitro ADME; conditions: human, human microsomes; Table 1
human wild type CB2R = human wild type CB2R (Homo sapiens, UniProt P34972); assay: β-arrestin2 recruitment assay (Pathhunter); assay type: cell-based; set-up: host or cells: CHO cells (Pathhunter)
CYP450 2D6 = target: T1, CYP450 2D6 (Homo sapiens, UniProt P10635); assay: CYP inhibition in pooled human liver microsomes; assay type: in vitro ADME
T1 construct: pooled human liver microsomes; from tissue; host or cells: pooled human liver microsomes
T1 sequence (P10635 whole entry): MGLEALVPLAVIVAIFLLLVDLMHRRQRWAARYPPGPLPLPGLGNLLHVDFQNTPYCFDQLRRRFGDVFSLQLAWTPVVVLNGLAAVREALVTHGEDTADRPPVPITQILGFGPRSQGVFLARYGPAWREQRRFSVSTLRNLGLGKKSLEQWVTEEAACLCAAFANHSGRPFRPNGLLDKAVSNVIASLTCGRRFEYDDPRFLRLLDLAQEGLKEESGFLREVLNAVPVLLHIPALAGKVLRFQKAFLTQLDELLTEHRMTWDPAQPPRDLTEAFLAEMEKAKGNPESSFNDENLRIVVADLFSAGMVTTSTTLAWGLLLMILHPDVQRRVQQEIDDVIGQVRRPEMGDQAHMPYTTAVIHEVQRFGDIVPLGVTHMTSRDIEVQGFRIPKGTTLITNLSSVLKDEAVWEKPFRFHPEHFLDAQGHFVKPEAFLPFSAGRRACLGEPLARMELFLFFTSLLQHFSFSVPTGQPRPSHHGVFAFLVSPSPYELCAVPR
Description: (§1) Cytochrome P450 (CYP) assays were conducted as previously described.[41] In brief, RNB-61 was incubated at a range of concentrations with the following components: pooled human liver microsomes, CYP probe substrate around the reported Km, and NADPH with a final concentration: 1 mM in 100 mM sodium phosphate buffer (pH 7.4). The conditions were optimized for a linear metabolic rate for the probe substrate reactions. The analysis of the samples was carried out by LC-MS/MS. The assays generated two endpoints: IC50 (μM) and percent inhibition at the highest acceptable test concentration (typically 50 μM; lower if the highest concentration data are rejected due to insolubility). […] (GSH) adduct formation data was assessed as reported in a previous study.[42] Briefly, RNB-61 was incubated with human liver microsomes to form reactive metabolites, and glutathione was added as a nucleophile to convert the reactive metabolites into stable conjugates that could be analyzed by MS.

CYP450 3A4 = target: T2, CYP450 3A4 (Homo sapiens, UniProt P08684); assay: CYP inhibition in pooled human liver microsomes; assay type: in vitro ADME
T2 construct: pooled human liver microsomes; from tissue; host or cells: pooled human liver microsomes
T2 sequence (P08684 whole entry): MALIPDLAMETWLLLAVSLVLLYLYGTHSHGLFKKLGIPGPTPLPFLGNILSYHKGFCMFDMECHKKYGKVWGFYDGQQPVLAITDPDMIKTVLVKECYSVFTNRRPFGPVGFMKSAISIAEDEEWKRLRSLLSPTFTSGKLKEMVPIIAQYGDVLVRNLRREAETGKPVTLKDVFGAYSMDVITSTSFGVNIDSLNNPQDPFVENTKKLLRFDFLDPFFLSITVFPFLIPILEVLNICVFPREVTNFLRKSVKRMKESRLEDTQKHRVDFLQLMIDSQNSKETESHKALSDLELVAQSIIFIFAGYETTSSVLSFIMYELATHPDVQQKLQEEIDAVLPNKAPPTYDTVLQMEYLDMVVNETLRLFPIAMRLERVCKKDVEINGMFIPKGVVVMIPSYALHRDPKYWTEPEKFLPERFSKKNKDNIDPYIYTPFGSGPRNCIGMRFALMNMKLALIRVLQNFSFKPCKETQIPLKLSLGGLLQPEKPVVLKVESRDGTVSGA
Description: as §1

CYP450 2C9 = target: T3, CYP450 2C9 (Homo sapiens, UniProt P11712); assay: CYP inhibition in pooled human liver microsomes; assay type: in vitro ADME
T3 construct: pooled human liver microsomes; from tissue; host or cells: pooled human liver microsomes
T3 sequence (P11712 whole entry): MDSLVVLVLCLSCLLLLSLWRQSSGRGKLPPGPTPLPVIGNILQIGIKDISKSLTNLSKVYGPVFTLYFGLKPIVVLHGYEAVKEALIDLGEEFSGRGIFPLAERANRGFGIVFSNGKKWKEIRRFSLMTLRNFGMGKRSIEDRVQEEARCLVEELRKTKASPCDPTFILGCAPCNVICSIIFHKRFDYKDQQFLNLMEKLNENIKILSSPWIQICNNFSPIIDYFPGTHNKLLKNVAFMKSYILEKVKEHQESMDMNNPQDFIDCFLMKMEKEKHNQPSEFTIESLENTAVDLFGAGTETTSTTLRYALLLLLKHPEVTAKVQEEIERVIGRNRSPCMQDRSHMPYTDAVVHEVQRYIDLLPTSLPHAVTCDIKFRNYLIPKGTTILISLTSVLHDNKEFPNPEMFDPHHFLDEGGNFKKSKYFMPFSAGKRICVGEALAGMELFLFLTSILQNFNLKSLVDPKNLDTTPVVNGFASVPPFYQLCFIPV
Description: as §1

[1] = test system: renal I/R-induced acute kidney injury; assay: Ischemia/reperfusion (I/R) model of acute kidney injury; assay type: in vivo, C57BL/6 mice
Description: In the ischemia/reperfusion (I/R) model of acute kidney injury (AKI),[47],[48] the compounds were administered orally by gavage to C57BL/6 mice 30 min before ischemia obtained by clamping both renal arteries and veins for 25 min, followed by 24 h of reperfusion. Mice were anesthetized using xylazine (10 mg kg^–1)/ketamine (100 mg kg^–1) injected intraperitoneally. Sham treated mice were treated identically except for the temporary closure of the renal vessels. After 24 h, under reanesthesia, plasma was taken for biomarker analysis. Thereafter, mice still in deep anesthesia were sacrificed by cervical dislocation. Creatinine, BUN (blood urea nitrogen), NGAL (neutrophil gelatinase-associated lipocalin), osteopontin, and KIM1 (kidney injury molecule-1) levels were determined using the following commercially available standard assays: creatinine: Roche Diagnostics 03263991, BUN: Roche Diagnostics 04460715, NGAL: BioPorto, Kit046 + Kit042, osteopontin: R&D Systems, MOST00, KIM-1: Abnova, KA1064. To assess fibrotic effects, we used the unilateral ureteral obstruction (UOO) model in Sprague–Dawley rats.[49] For the UOO model, rats were sacrificed after 5, 8, and 11 days and the percentage of PicroSirius Red positive areas (indicator of collagen III–I deposition) were measured in 4 μm histological cross sections of the kidney after 2% paraformaldehyde perfusion fixation and paraffin embedding. The extend of kidney fibrosis was quantified based on PicroSirius Red staining of 10 renal sections about 1 mm apart from each kidney. The collagen–III-I-positive pixel counts were determined in the cortical aspect of each kidney section from 10 optical fields using a 40× objective. As the total area analyzed was identical for all kidneys under investigation, the absolute number of pixels was used as the relevant readout. Vehicle treated animals received saline gavage only. The details of PicroSirius Red staining were previously described.[22]

[2] = 3 mg kg^–1 p.o., 24 h reperfusion
[3] = maximal protection at 3–30 mg kg^–1

Sequence of human wild type CB2R (P34972 whole entry): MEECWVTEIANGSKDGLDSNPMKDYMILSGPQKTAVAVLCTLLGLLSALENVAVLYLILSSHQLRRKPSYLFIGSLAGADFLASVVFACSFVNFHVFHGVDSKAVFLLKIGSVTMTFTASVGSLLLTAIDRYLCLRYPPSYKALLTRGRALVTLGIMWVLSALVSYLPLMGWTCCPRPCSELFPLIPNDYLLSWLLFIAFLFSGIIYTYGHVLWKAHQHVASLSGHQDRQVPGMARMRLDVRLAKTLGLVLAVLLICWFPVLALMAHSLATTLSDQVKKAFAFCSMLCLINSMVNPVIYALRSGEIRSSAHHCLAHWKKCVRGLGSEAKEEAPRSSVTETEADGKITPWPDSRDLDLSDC

Cn1c(C(C)(C)C)cc(=NC(=O)c2cc(C(F)(F)F)ccc2OCC(C)(C)O)n1CC1CCC1 [RNB-61]
microsomal CLint (Microsomal clearance): ≤ 10 µL/min/mg
EC50 (human wild type CB2R; Figure 2, normalized to 1 μM CP55940): 0.0133 ± 0.0019 µM
Emax (human wild type CB2R; percentage normalized to 1 μM CP55940, read-out: Emax β-arrestin2 recruitment): 80%
Emax (human wild type CB2R; relative to CP55,940, text, read-out: Emax of total β-arrestin2 recruitment): ~80%
IC50 (CYP450 2D6): 15.5 µM
IC50 (CYP450 3A4): 35.5 µM
IC50 (CYP450 2C9): 50 µM
effect on I/R induced plasma creatinine levels ([1]; 0.1 mg kg^–1): No significant difference
reduction of BUN compared to vehicle [1, 2]: 30%
reduction of plasma creatinine compared to vehicle [1, 2]: 48%
reduction of plasma KIM-1 compared to vehicle [1, 3]: 50%
reduction of plasma NGAL compared to vehicle [1, 3]: 39%
reduction of plasma osteopontin compared to vehicle [1, 3]: 43%
dose from which KIM-1 release is inhibited ([1]; mouse, in vivo): 0.3 mg kg^–1
dose from which NGAL release is inhibited ([1]; mouse, in vivo): 0.3 mg kg^–1
dose from which osteopontin release is inhibited ([1]; mouse, in vivo): 3 mg kg^–1
